Results: US10752612B2, “PLK4 inhibitors” (LUDWIG INSTITUTE FOR CANCER RESEARCH LTD, priority 2015, dated 2020)

Target: T1, human Plk4 kinase domain (aa 2-275) (Homo sapiens, UniProt O00444)
T1 construct: purified 6×His-tagged human Plk4 kinase domain (aa 2-275); 6xHis; made in house; host or cells: E. coli
T1 sequence (O00444 2-275): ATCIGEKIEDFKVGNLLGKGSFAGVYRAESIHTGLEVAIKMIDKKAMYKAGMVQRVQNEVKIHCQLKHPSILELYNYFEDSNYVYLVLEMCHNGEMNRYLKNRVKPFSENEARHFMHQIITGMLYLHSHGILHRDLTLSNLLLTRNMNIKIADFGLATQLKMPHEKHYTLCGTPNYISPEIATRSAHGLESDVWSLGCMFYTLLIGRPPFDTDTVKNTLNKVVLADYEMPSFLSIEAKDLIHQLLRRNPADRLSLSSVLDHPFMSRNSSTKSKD
Experiment: Plk4 kinase assay (ADP-Glo)
Type: biochemical
Details: Table 1
Description: Kinase assays. […] The Plk4 concentration in the final reaction was 2.5-10 nM with a final pH of 8.0. […] Reactions were allowed to proceed for 4-16 hours at 25° C. Detection was performed using ADP-Glo reagent (Promega), following manufacturer's instructions. Luminescence was measured on an Infinite M1000 plate reader (Tecan). Data were fit using Prism (GraphPad) and Kis were calculated from IC50 data using the Cheng and Prusoff equation (37) or the Copeland formalism for tight-binding inhibitors (38).

Row | IC50 [µM] | Compound
1 | < 1 | COc1c(Nc2cc(C)[nH]n2)nc(Sc2ccc(NC(C)=O)cc2)nc1N1CCN(CCS(C)(=O)=O)CC1
2 | < 1 | COc1c(Nc2cc(C)[nH]n2)nc(Sc2ccc(NC(C)=O)cc2)nc1N1CCN(CCN2C3CCCC2CCC3)CC1
3 | < 1 | COc1c(Nc2ncc(C)s2)nc(Sc2ccc(NC(C)=O)cc2)nc1N1CCN(CCN(C)C)CC1
4 | > 1 | COc1c(Nc2cc(CC(=O)Nc3cccc(F)c3)[nH]n2)nc(SC)nc1N1CCN(CCN(C)C)CC1
5 | < 1 | COc1c(Nc2cc(C)[nH]n2)nc(Sc2ccc(S(C)(=O)=O)cc2)nc1N1CCN(CCN2CCN(C)CC2)CC1
6 | < 1 | COc1c(Nc2cc(C)[nH]n2)nc(Sc2ccc(NS(C)(=O)=O)cc2)nc1N1CCN(CCN(C)C)CC1
7 | < 1 | CCS(=O)(=O)c1ccc(Sc2nc(Nc3cc(C)[nH]n3)c(OC)c(N3CCN(CCN(C)C)CC3)n2)cc1
8 | < 1 | COc1c(Nc2cc(C)[nH]n2)nc(Sc2ccc(S(=O)(=O)N(C)C)cc2)nc1N1CCN(CCN(C)C)CC1
9 | < 1 | COc1c(Nc2cc(C)[nH]n2)nc(Sc2ccc(S(=O)(=O)Cc3ccccc3)cc2)nc1N1CCN(CCN(C)C)CC1
10 | < 1 | COc1c(Nc2ncc(C)s2)nc(Sc2ccc(S(C)(=O)=O)cc2)nc1N1CCN(CCN(C)C)CC1
11 | < 1 | COc1c(Nc2cc(C)[nH]n2)nc(Sc2ccc(S(=O)(=O)CCO)cc2)nc1N1CCN(CCN(C)C)CC1

Further lines, the compound ahead of its results:

Row | Compound | IC50 [µM]
12 | COc1c(Nc2cc(C)[nH]n2)nc(Sc2ccc(NC(=O)C3CCCC3)cc2)nc1N1CCOCC1 | < 1
13 | CCN(CC)c1nc(Sc2ccc(NC(=O)C3CCCC3)cc2)nc(Nc2cc(C)[nH]n2)c1OC | 0.1 to 1
14 | COc1c(Nc2cc(C)[nH]n2)nc(Sc2ccc(NC(=O)C3CCCC3)cc2)nc1N(C)C | < 1
15 | COc1c(Nc2cc(C)[nH]n2)nc(Sc2ccc(NC(C)=O)cc2)nc1N1CCN(CCN(C)C)CC1C (centres unmarked) | > 1
16 | COc1c(Nc2cc(C)[nH]n2)nc(Sc2ccc(NC(C)=O)cc2)nc1N1CCN(CCN(C)c2ccccc2)CC1 | < 1
17 | COc1c(Nc2cc(C)[nH]n2)nc(Sc2ccc(NC(C)=O)cc2)nc1N1CCN(CCN2C3CCCC2CC3)CC1 | < 1
18 | COc1c(Nc2cc(C)[nH]n2)nc(Sc2ccc([S+](C)[O-])cc2)nc1N1CCN(CCN(C)C)CC1 (centres unmarked) | < 1
19 | COc1c(Nc2cc(C)[nH]n2)nc(Sc2ccc(NC(C)=O)cc2)nc1N1CC2CCC(C1)N2CCN1CCCCCCC1 | < 1
20 | CC(=O)Nc1ccc(Sc2nc(Nc3cc(C)[nH]n3)c(C)c(C3CCN(CCN(C)C)CC3)n2)cc1 | < 1
21 | COc1c(Nc2cc(C)[nH]n2)nc(Sc2ccc(S(=O)(=O)C(F)(F)F)cc2)nc1N1CCN(CCN(C)C)CC1 | < 1
22 | CC(=O)Nc1ccc(Sc2nc(Nc3cc(C)[nH]n3)cc(C3CCN(CCN(C)C)CC3)n2)cc1 | 0.1 to 1
23 | COc1c(Nc2cc(C)[nH]n2)nc(Sc2ccc(S(=O)(=O)COCc3ccccc3)cc2)nc1N1CCN(CCN(C)C)CC1 | < 1
24 | COc1c(Nc2nccs2)nc(Sc2ccc(NC(C)=O)cc2)nc1N1CCN(CCN(C)C)CC1 | 0.1 to 1
25 | COc1c(Nc2cc(C)[nH]n2)nc(Sc2ccc(S(C)(=O)=O)cc2)nc1C1CCN(CCN(C)C)CC1 | 0.1 to 1
26 | COc1c(Nc2cc(C)[nH]n2)nc(Sc2ccc(NC(C)=O)cc2)nc1C1CCN(CCN2CCN(C)CC2)CC1 | < 1
27 | CCCS(=O)(=O)c1ccc(Sc2nc(Nc3cc(C)[nH]n3)c(OC)c(N3CCN(CCN(C)C)CC3)n2)cc1 | < 1
28 | CCS(=O)(=O)c1ccc(Sc2nc(Nc3cc(C)[nH]n3)c(OC)c(N3CCC(CCN(C)C)CC3)n2)cc1 | < 1
29 | COc1c(Nc2cc(C)[nH]n2)nc(Sc2ccc(S(=O)(=O)CC(C)C)cc2)nc1N1CCN(CCN(C)C)CC1 | < 1
30 | CCS(=O)(=O)c1ccc(Sc2nc(Nc3cc(C)[nH]n3)c(OC)c(N3CCN(CCN4CCN(C)CC4)CC3)n2)cc1 | < 1
31 | COc1c(Nc2cc(C)[nH]n2)nc(Sc2ccc(S(=O)(=O)C(C)C)cc2)nc1N1CCN(CCN(C)C)CC1 | < 1
32 | COc1c(Nc2cc(C)[nH]n2)nc(Sc2ccc(S(=O)(=O)Cc3ccc(F)cc3)cc2)nc1N1CCN(CCN(C)C)CC1 | < 1
